Source: PubChem BioAssay (NCI)
Where “and” joins values, the source holds several entries; their conditions need not be identical. Identical values can stand only once.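 Test compounds were applied to cells in 96-well plates for 48 hours at 5 doses. The concentration for 50% growth inhibition is given as GI50. The concentration for full growth arrest is given as TGI.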

Experiments:
Assay in all cases: NCI-60 cell line screen, 48 h
M19-MEL melanoma = test system: M19-MEL melanoma
SK-MEL-2 melanoma = test system: SK-MEL-2 melanoma
KM20L2 colon = test system: KM20L2 colon
SF-539 CNS = test system: SF-539 CNS
UACC-257 melanoma = test system: UACC-257 melanoma
RXF 393 renal = test system: RXF 393 renal
LXFL 529 NSCLC = test system: LXFL 529 NSCLC
ACHN renal = test system: ACHN renal
PC-3 prostate = test system: PC-3 prostate
HS 578T breast = test system: HS 578T breast
BT-549 breast = test system: BT-549 breast

Structure (SMILES) | TGI (M19-MEL melanoma) | TGI (SK-MEL-2 melanoma) | TGI (KM20L2 colon) | TGI (SF-539 CNS) | TGI (UACC-257 melanoma) | TGI (RXF 393 renal) [µM] | TGI (LXFL 529 NSCLC) | TGI (ACHN renal) [µM] | TGI (PC-3 prostate) [µM] | TGI (HS 578T breast) [µM] | GI50 (ACHN renal) | GI50 (M19-MEL melanoma) | TGI (BT-549 breast) [µM] | GI50 (PC-3 prostate) [µM] | GI50 (HS 578T breast) [µM] | GI50 (BT-549 breast) [µM]
CCCCc1c2c(nc3c1CCc1cc4c(nc1-3)-c1nc3c(c(CCCC)c1CC4)CCC/C3=C\c1ccccc1)/C(=C/c1ccccc1)CCC2 | > 100 µM | > 100 µM | > 100 µM | > 100 µM | > 100 µM | 65.4 | > 100 µM | – | – | – | – | – | – | – | – | –
COc1cccc(NC(=O)CSc2nnc(-c3ccc(N=Cc4ccc(Cl)cc4)cc3)o2)c1 | 60.8 µM | 39.8 µM | 30.6 µM | – | – | 34 | 50.2 µM | 30.3 | – | – | – | – | – | – | – | –
CC(C)(C)N=C1CC(C)(C)c2ccccc2C(=Nc2ccccc2)S1 | > 100 µM | 99 µM | > 100 µM | > 100 µM | > 100 µM | > 100 | > 100 µM | > 100 | – | – | – | – | – | – | – | –
COc1cc(C2C3=C(CCC3=O)Oc3cc4c(cc32)OCO4)cc(OC)c1OC (stereo not drawn) | > 100 µM | – | 0.664 µM | – | > 100 µM | > 100 | – | 62.3 | – | – | – | – | – | – | – | –
CN1CCn2c(Br)ccc2C1=O | > 100 µM | > 100 µM | > 100 µM | > 100 µM | > 100 µM | > 100 | > 100 µM | > 100 | – | – | – | – | – | – | – | –
COc1ccc(/C=C2\Cc3ccccc3C2=O)cc1OC | > 100 µM | > 100 µM | > 100 µM | – | > 100 µM | – | > 100 µM | > 100 | – | – | – | – | – | – | – | –
O=S1(=O)NNC(=NCc2ccc(Cl)cc2)c2ccccc21 | > 100 µM | > 100 µM | > 100 µM | > 100 µM | > 100 µM | > 100 | > 100 µM | > 100 | – | – | – | – | – | – | – | –
Cc1csc2c1C(=O)c1ccsc1C2=O | 0.339 µM | 4.51 µM | 17.6 µM | 3.93 µM | 2.88 µM | 11.8 | 13.3 µM | 10.7 | 8.1 | 4.37 | – | – | – | – | – | –
CCOc1ccc2[nH]c3c(C)c4cc[n+](C)cc4c(C)c3c2c1 | 2.27 µM and 4.23 µM | 2.53 µM and 8.79 µM | 47.8 µM and > 96.8 µM | 1.63 µM and 2.65 µM | 13.7 µM and 27.8 µM | > 100 | 1.54 µM and 3.6 µM | > 100 | – | – | 6.04 µM and 17.5 µM | 0.557 µM and 1.5 µM | – | – | – | –
CC1(O)C=CC2CCC1C2O (stereo not drawn) | > 100 µM | > 100 µM | > 100 µM | > 100 µM | > 100 µM | > 100 | > 100 µM | > 100 | – | – | – | – | – | – | – | –
O=C1NC(=S)N/C1=C/c1ccccc1O | – | > 100 µM | – | > 100 µM | > 100 µM | > 100 | – | > 100 | > 100 | > 100 | – | – | > 100 | – | – | –
O=c1[nH]c(=O)n(C2OC(COP(=O)(O)OP(=O)(O)O)C(O)C2O)cc1F (stereo not drawn) | > 50 µM | > 50 µM | > 50 µM | 17.2 µM | > 50 µM | 13.8 | > 50 µM | > 44.7 | – | – | – | – | – | – | – | –
Cc1cc(S(=O)(=O)Nc2nnc3c(C(F)(F)F)cc(Cl)cn23)c(S)cc1Cl | – | > 100 µM | – | > 100 µM | > 100 µM | > 100 | – | > 100 | > 100 | > 100 | – | – | > 100 | – | – | –
Cc1ccc(C(=O)N(C(C)C)C(C)C)cc1N=NN(C)C | > 100 µM | > 100 µM | > 100 µM | > 100 µM | > 100 µM | – | > 100 µM | > 100 | > 100 | > 100 | – | – | > 100 | – | – | –
CCOC(=O)c1ccc2nc(NC(=O)COC(=O)CSc3nc(C)cc(C)n3)sc2c1 | – | > 100 µM | – | 80.6 µM | > 100 µM | > 100 | – | > 100 | > 100 | > 100 | – | – | > 100 | – | – | –
S=C(N/N=C\C=N/NC(=S)N1CCCCCC1)N1CCCCCC1 | – | > 100 µM | – | > 100 µM | > 100 µM | 90.9 | – | > 100 | > 100 | > 100 | – | – | > 100 | – | – | –
CCOC(=O)c1nc2c3c(ncn2n1)Oc1c(c(-c2ccccc2)nn1-c1ccccc1)C3c1ccc(Cl)cc1 (stereo not drawn) | – | > 100 µM | – | > 100 µM | > 100 µM | > 100 | – | > 100 | > 100 | > 100 | – | – | > 100 | – | – | –
COc1ccc(/C=C/c2cc(O)cc(OC)c2)cc1 | – | > 100 µM | – | > 100 µM | > 100 µM | > 100 | – | > 100 | > 100 | > 100 | – | – | > 100 | – | – | –
OCC1OC(n2cnc3cccnc32)CC1O (stereo not drawn) | – | > 100 µM | – | > 100 µM | > 100 µM | > 100 | – | > 100 | > 100 | > 100 | – | – | > 100 | – | – | –
CCCCC[C@@H]1OCO[C@@]2(C)/C=C(C)/C=C/C(=O)O[C@H]([C@@H](C)[C@@H](O)[C@H](C)[C@@]3(O)C[C@@H](O[C@H]4C[C@@H](O)[C@H](O)[C@@H](C)O4)[C@H](C)[C@@H](C)O3)[C@@H](OC)/C=C/C=C(\C)C[C@@H]1[C@@H]2O (stereo in doubt) | – | < 0.005 µM | – | 3.23 µM | < 0.005 µM | 1.19 | – | 1.33 | 1.64 | 50 | – | – | 16.5 | – | – | –
Cc1cc(C)c(S(=O)(=O)N(CCCCN)OCCCN)c(C)c1 | – | 30.9 µM | – | 41.6 µM | 30.2 µM | 31.6 | – | 37 | 27.6 | 34.4 | – | – | 33.8 | – | – | –
Cc1cc(Cc2c(F)c(F)c(Cc3cc(C)no3)c(F)c2F)on1 | – | > 100 µM | – | > 100 µM | > 100 µM | > 100 | – | > 100 | > 100 | > 100 | – | – | > 100 | – | – | –
C/C(=N\NC(N)=O)C(CN1CCCCC1)C(c1ccccc1)c1c(O)c2ccccc2oc1=O (stereo not drawn) | > 100 µM | > 100 µM | > 100 µM | > 100 µM | > 100 µM | > 100 | > 100 µM | > 100 | > 100 | > 100 | – | – | > 100 | 95.3 | 79.4 | 86.7
